From patent US4156731A, “Heterocyclic oxime compounds and carbamoyloxime derivatives” (priority 1976, dated 1979)

Legend:
Type in all cases: in vivo
Design in all cases: key: A: Excellent control; B: Partial control; C: No control
[1] = test system: bean aphid (Aphis fabae Scop.); assay: Bean Aphid Foliage Spray Test; settings: 500 ppm foliage spray, 24 hour holding period
Experimental: (§1) Selected species of the new compounds were evaluated to determine their pesticidal activity against mites and certain insects, including anaphid, a caterpillar, a beetle and a fly.
(§2) Suspensions of the test compounds were prepared by dissolving one gram of compound in 50 milliliters of acetone in which had been dissolved 0.1 gram (10 percent of the weight of compound) of an alkylphenoxy polyethoxyethanol surfactant, as an emulsifying or dispersing agent. The resulting solution was mixed into 150 milliliters of water to give roughly 200 milliliters of a suspension containing the compound in finely divided form. The thus-prepared stock suspension contained 0.5 percent by weight of test compound. The test concentrations in parts per million by weight employed in the tests described hereinbelow were obtained by appropriate dilutions of the stock suspension with water. The test procedures were as follows:
Bean Aphid Foliage Spray Test
Adults and nymphal stages of the bean aphid (Aphis fabae Scop.) reared on potted dwarf nasturtium plants at 65°-70° F. and 50-70 per cent relative humidity, constituted the test insects. For testing purposes, the number of aphids per pot was standardized to 100-150 by trimming plants containing excess aphids.
The test compounds were formulated by diluting the stock suspension with water to give a suspension containing 500 parts of test compound per million parts of final formulation.
The potted plants (one pot per compound tested) infested with 100-150 aphids, were placed on a revolving turntable and sprayed with 100-110 milliliters of test compound formulation by use of a DeVilbiss spray gun set at 40 psig. air pressure. This application, which lasted 25 seconds, was sufficient to wet the plants to run-off. As a control, 100-110 milliliters of a water-acetone-emulsifier solution containing no test compound were also sprayed on infested plants. After spraying, the pots were placed on their sides on a sheet of white standard mimeograph paper which had been previously ruled to facilitate counting. Temperature and humidity in the test room during the 24 hour holding period were 65°-70° F. and 50-70 per cent, respectively. Aphids which fell into the paper and were unable to remain standing after being uprighted were considered dead. Aphids remaining on the plants wre observed closely for movement and those which were unable to move the length of the body upon stimulator by prodding were considered dead. Per cent mortality was recorded for various concentration levels.
(§3) In these tests the pesticidal activity of the compounds against aphid, mite, Southern Armyworm, Mexican Bean Beetle, and house fly was rated as follows: […]

[2] = test system: two spotted mite (Tetranychus urticae Koch); assay: Mite Foliage Spray Test; settings: 500 ppm foliage spray, six days
Experimental: as §1, §2
Adults and nymphal stages of the two spotted mite (Tetranychus urticae Koch), reared on Tendergreen bean plants at 80±5 per cent relative humidity, were the test organisms. Infested leaves from a stock culture were placed on the primary leaves of two bean plants six to eight inches in height, growing in a two-and-a-half inch clay pot. 150-200 mites, a sufficient number for testing, transferred from the excised leaves to the fresh plants in a period of twenty four hours. Following the twenty four hour transfer period, the excised leaves were removed from the infested plants. The test compounds were formulated by diluting the stock suspension with water to give a suspension with water to give a suspension containing 500 parts of test compound per million parts of final formulation. The potted plants (one pot per compound) were placed on a revolving turntable and sprayed with 100-110 milliliters of test compound formulation by use of a DeVilbiss spray gun set at 40 psig. air pressure. This application, which lasted for 25 seconds, was sufficient to wet the plants to run-off. As a control, 100-110 milliliters of a water solution containing acetone and emulsifier in the same concentrations as the test compound formulation, but containing no test compound, were also sprayed on infested plants. The sprayed plants were held at 80±5 per cent relative humidity for six days, after which a mortality count of motile forms were made. Microscopic examination for motile forms was made on the leaves of the test plants. Any individual which was capable of locomotion upon prodding, was considered living.
as §3

[3] = test system: southern armyworm (Prodenia Eridania, (Cram.)); assay: Southern Armyworm Leaf Spray Test; settings: larvae, 500 ppm leaf spray, three days
Experimental: as §1, §2
Southern Armyworm Leaf Spray Test
Larvae of the southern armyworm (Prodenia Eridania, (Cram.), reared on Tendergreen bean plants at a temperature of 80°±5° F. and a relative humidity of 50±5 per cent, constituted the test insects.
The test compounds were formulated by diluting the stock suspension with water to give a suspension containing 500 parts of test compound per million parts of final formulation. Potted Tendergreen bean plants of standard height and age were placed on a revolving turntable and sprayed with […] of test compound formulation by use of a DeVilbiss spray gun set at 10 psig. air pressure.
This application, which lasted 25 seconds, was sufficient to wet plants to run-off. As a control, 100-110 milliliters of a water-acetone-emulsifier solution containing no test compound were also sprayed on infested plants. When dry, the paired leaves were separated and each one was placed in a 9 centimeter Petric dish lined with moistened filter paper. Five randomly selected larvae were introduced into each dish and the dishes were closed. The closed dishes were labeled and held at 80°-85° F. for three days. Although the larvae could easily consume the whole leaf within twenty-four hours, no more food was added. Larvae which were unable to move the length of the body, even upon stimulation by prodding, were considered dead. Per cent mortality was recorded for various concentration levels.
as §3

[4] = test system: Mexican bean beetle (Epilachna varivestis, Muls.); assay: Mexican Bean Beetle Leaf Spray Test; settings: fourth instar larvae, 500 ppm leaf spray, three days
Experimental: as §1, §2
Mexican Bean Beetle Leaf Spray Test
Fourth instar larvae of the Mexican bean beetle (Epilachna varivestis, Muls.), reared on Tendergreen bean plants at a temperature of 80°±5° F. and 50±5 per cent relative humidity, were the test insects.
The test compounds were formulated by diluting the stock suspension with water to give a suspension containing 500 parts of test compound per million parts of final formulation. Potted Tendergreen bean plants of standard height and age were placed on a revolving turntable and sprayed with 100-110 milliliters of test compound formulation by use of DeVilbiss spray gun set at 10 psig air pressure. This application, which lasted 25 seconds, was sufficient to wet plants to run-off. As a control, 100-110 milliliters of a water-acetone-emulsifier solution containing no test compound were also sprayed on infested plants. When dry, the paired leaves were separated and each was placed in a 9 centimeter Petri dish lined with moistened filter paper. Five randomly selected larvae were introduced into each dish, and the dishes were closed. The closed dishes were labeled and held at a temperature of […]. for three days. Although the larvae could easily consume the leaf within 24 to 48 hours, no more food was added. Larvae which were unable to move the length of the body, even upon stimulation, were considered dead.
as §3

[5] = test system: house flies (Musca domestica, L.); assay: Fly Bait Test; settings: adults, 500 ppm in sugar bait, twenty four hours
Experimental: as §1, §2
Four to six day old adult house flies (Musca domestica, L.) reared according to the specifications of the Chemical Specialities Manufacturing Association (Blue Book, McNair-Dorland Co., NY., 1954; pages 234-244, 261) under controlled conditions of 80°±5° F. and 50±5 per cent relative humidity, were the test insects. The flies were immobilized by anesthetizing with carbon dioxide and twenty five immobilized individuals, males and females, were transferred to a cage consisting of a standard food stainer about five inches in diameter which was inverted over a wrapping-paper-covered surface. The test compounds were formulated by diluting the stock suspension with a 10 per cent (by weight) sugar solution to give a suspension containing 500 parts of test compound per million parts of final formulation, by weight. Ten milliliters of the test formulation were added to a souffle cup containing a one inch square of an absorbent cotton pad. This bait cup was introduced and centered on the blotting paper under the food strainer prior to admitting the anesthetized flies. The caged flies were allowed to feed on the bait for twenty four hours, at a temperature of 80°±5° F. and the relative humidity of 50±5 per cent.
as §3

Structure (SMILES) | Bean Aphid pesticidal activity rating [1] | Mite pesticidal activity rating [2] | Southern Armyworm pesticidal activity rating [3] | Mexican Bean Beetle pesticidal activity rating [4] | House-Fly pesticidal activity rating [5]
CN(Sc1ccc(C(C)(C)C)cc1)C(=O)ON=C1SC(=C(C#N)C#N)SC1(C)C [LXXIII] | A | B | C | A | C
Cc1ccc(S(=O)(=O)N=C2SC(=NOC(=O)N(C)SC(Cl)(Cl)Cl)C(C)(C)S2)cc1 [LX] | C | C | B | B | B
CNC(=O)ON=C1SC(=NS(C)(=O)=O)SC1(C)C [LVII] | B | C | B | B | B
CNC(=O)ON=C1SC(=C[N+](=O)[O-])SC1(C)C [LXVII] | B | C | A | A | A
CCCCN=C1SC(=NOC(=O)NC)C(C)(C)S1 [LII] | A | C | B | A | A
CN=C1SC(=NOC(=O)NC)C(C)(C)S1 [XL, 5,5-Dimethyl-2-methylimino-4-[O-(N-methylcarbamoyl)oximino]-1,3-dithiolane] | A | A | B | A | A
CNC(=O)ON=C1SC(=C(C#N)c2ccccc2)SC1(C)C [LXVI] | C | C | C | B | C
CNC(=O)ON=C1SC(=NC2CCCCC2)SC1(C)C [LIV] | A | B | C | B | A
